In ChEMBL document CHEMBL3875143, “Novel multi-target-directed ligands for Alzheimer's disease: Combining cholinesterase inhibitors and 5-HT6 receptor antagonists. Design, synthesis and biological evaluation” (Eur J Med Chem, 2016):
Active and inactive are the calls of the source. The calls are words filed in the database; no cut-off is given here.

Columns and labels:
Acetylcholinesterase [1] = target: Acetylcholinesterase (Electrophorus electricus, UniProt O42275)
Description: Inhibition of electric eel AChE preincubated for 5 mins followed by acetylthiocholine iodide substrate addition measured after 5 mins by Ellman's method

Cholinesterase [2] = target: Cholinesterase (Equus caballus, UniProt P81908)
Description: Inhibition of equine serum BuChE preincubated for 5 mins followed by butyrylthiocholine iodide substrate addition measured after 5 mins by Ellman's method

[3] = target: 5-hydroxytryptamine receptor 6 (Homo sapiens, UniProt P50406); test: biochemical
Description: Displacement of [3H]-LSD from human recombinant 5-HT6 receptor expressed in CHOK1 cell membranes measured after 60 mins by scintillation counter

Acetylcholinesterase [4] = target: Acetylcholinesterase (Homo sapiens, UniProt P22303); test: Inhibition of human recombinant AChE preincubated for 5 mins followed by acetylthiocholine iodide substrate addition measured after 5 mins by Ellman's method
[5] = target: Cholinesterase (Equus caballus) (UniProt P81908); test: Inhibition of equine serum BuChE at 10 uM preincubated for 5 mins followed by butyrylthiocholine iodide substrate addition measured after 5 mins by Ellman's method relative to control
[6] = PAMPA, 2 h
Rattus norvegicus [7] = test: Reversal of scopolamine-induced hyperlocomotion in ip dosed Wistar rat; assay type: functional, organism-based
[8] = target: Cholinesterase (Equus caballus) (UniProt P81908); conditions: 9 to 30 nM
Cholinesterase [9] = target: Cholinesterase (Homo sapiens, UniProt P06276); test: Inhibition of human recombinant BuChE preincubated for 5 mins followed by butyrylthiocholine iodide substrate addition measured after 5 mins by Ellman's method
[10] = Reduction of spontaneous locomotor activity below baseline in Wistar rat at 10 mg/kg, ip in presence of scopolamine by open field assay; assay type: ADME, organism-based; conditions: in vivo
Rattus norvegicus [11] = test: Reduction in spontaneous locomotor activity in Wistar rat at 10 mg/kg, ip pretreated for 30 to 180 mins by open field assay; assay type: functional, organism-based
Rattus norvegicus [12] = test: Reduction in spontaneous locomotor activity in ip dosed Wistar rat pretreated for 30 mins by open field assay; assay type: functional, organism-based
[13] = target: Acetylcholinesterase (Electrophorus electricus) (UniProt O42275); test: Non-competitive inhibition of electric eel AChE at 30 to 120 nM using varying levels of acetylthiocholine iodide substrate preincubated for 5 mins followed by substrate addition measured after 5 mins by Line-weaver burk plot method
Acetylcholinesterase (Electrophorus electricus), sequence (O42275 24-633 limits assumed): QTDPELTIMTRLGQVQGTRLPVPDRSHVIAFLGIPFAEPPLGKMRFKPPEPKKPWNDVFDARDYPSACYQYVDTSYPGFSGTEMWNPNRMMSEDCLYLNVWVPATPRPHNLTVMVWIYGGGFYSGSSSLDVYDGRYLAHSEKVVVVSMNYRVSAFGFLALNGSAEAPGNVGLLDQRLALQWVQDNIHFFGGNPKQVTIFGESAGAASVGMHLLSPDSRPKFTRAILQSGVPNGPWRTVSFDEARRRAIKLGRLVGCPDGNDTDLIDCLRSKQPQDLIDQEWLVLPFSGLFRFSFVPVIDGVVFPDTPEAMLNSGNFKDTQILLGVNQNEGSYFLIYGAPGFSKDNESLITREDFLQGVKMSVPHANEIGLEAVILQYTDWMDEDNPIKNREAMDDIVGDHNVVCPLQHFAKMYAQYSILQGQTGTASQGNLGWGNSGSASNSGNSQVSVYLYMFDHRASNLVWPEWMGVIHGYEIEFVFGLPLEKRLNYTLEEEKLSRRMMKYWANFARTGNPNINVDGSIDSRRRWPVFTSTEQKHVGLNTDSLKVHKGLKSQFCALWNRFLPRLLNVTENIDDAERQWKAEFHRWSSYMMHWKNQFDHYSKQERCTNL

Acetylcholinesterase (Electrophorus electricus, UniProt O42275), sequence (O42275 whole entry): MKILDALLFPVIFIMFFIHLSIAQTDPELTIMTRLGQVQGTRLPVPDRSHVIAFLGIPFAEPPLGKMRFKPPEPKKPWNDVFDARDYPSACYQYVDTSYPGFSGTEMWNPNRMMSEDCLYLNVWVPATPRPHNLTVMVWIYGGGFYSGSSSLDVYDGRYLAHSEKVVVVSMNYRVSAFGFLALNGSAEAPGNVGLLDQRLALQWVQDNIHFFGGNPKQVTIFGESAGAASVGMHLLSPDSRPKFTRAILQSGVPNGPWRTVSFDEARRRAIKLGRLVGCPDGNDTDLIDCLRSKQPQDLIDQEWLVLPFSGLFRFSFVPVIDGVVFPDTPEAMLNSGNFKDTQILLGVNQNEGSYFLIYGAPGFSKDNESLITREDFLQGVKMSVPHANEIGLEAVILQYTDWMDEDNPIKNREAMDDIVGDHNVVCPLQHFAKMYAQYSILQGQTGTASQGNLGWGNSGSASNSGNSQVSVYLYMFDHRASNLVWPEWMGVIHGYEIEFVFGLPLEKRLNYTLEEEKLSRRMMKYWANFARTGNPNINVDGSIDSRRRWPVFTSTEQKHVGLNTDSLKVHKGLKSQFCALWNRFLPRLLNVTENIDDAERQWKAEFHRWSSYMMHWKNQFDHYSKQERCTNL
Cholinesterase (Equus caballus, UniProt P81908), sequence (P81908 whole entry): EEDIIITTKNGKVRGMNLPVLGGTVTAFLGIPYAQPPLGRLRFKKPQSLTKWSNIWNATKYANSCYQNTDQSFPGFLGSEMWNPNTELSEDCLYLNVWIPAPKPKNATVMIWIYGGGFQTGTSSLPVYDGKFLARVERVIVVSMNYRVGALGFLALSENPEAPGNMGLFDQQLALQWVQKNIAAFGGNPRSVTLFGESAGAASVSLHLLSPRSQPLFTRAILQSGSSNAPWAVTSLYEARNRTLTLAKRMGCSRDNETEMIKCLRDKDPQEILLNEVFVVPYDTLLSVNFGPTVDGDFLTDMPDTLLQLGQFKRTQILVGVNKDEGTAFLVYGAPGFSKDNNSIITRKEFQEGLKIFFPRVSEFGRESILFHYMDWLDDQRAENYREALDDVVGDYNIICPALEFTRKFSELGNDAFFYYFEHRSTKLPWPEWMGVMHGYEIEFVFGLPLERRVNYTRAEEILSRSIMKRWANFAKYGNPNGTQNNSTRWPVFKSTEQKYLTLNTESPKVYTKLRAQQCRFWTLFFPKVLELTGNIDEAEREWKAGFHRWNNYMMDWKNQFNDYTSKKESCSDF
Cholinesterase (Equus caballus), sequence (P81908 whole entry): as above
Acetylcholinesterase (Homo sapiens, UniProt P22303), sequence (P22303 whole entry): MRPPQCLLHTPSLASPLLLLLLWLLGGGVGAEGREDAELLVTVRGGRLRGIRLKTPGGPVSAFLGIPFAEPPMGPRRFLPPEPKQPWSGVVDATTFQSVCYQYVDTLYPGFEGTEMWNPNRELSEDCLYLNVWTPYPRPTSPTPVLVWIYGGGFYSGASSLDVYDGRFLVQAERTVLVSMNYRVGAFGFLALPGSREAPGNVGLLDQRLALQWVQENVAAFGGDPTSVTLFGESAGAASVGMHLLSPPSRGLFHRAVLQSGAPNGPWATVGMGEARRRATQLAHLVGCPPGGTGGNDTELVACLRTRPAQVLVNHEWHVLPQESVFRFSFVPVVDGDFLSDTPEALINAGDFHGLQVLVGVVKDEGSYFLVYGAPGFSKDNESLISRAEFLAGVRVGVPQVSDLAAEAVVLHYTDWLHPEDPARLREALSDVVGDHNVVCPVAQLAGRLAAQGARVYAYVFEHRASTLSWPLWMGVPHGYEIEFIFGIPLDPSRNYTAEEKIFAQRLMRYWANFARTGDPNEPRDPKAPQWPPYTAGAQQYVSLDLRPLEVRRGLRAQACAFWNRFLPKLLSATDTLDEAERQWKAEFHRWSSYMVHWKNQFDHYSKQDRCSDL
5-hydroxytryptamine receptor 6, sequence (P50406 whole entry): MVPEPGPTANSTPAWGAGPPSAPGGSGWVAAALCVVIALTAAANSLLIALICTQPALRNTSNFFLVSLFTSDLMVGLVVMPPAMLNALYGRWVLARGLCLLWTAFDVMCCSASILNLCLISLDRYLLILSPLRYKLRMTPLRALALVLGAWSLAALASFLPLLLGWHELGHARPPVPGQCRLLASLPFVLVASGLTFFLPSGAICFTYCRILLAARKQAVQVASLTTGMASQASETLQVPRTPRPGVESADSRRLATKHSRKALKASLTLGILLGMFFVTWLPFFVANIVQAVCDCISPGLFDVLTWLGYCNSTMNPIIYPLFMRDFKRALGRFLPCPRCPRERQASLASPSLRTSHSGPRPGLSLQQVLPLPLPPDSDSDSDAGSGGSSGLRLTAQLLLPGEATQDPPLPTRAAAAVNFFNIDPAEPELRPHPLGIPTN
Cholinesterase (Homo sapiens, UniProt P06276), sequence (P06276 whole entry): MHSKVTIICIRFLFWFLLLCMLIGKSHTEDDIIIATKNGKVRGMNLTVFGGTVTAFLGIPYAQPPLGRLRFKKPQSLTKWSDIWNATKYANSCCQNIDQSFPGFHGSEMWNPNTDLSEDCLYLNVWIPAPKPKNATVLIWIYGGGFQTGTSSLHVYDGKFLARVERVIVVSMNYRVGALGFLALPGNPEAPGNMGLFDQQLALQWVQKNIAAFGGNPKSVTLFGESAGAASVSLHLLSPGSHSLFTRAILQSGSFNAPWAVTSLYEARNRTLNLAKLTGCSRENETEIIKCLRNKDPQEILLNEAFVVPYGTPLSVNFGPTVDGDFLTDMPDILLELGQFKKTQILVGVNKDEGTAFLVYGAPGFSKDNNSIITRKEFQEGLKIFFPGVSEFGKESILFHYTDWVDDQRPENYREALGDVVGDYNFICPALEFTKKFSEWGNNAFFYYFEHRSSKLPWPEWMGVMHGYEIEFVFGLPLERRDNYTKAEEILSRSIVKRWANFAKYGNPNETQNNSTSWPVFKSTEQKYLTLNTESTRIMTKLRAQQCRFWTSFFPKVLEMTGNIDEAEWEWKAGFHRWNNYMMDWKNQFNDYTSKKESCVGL

SMILES | IC50 (Acetylcholinesterase [1]) | IC50 (Cholinesterase [2]) | Ki [3] | further results
O=S(=O)(c1ccccc1)n1ccc2c(N3CCN(CCCCCNc4c5c(nc6ccccc46)CCCC5)CC3)cccc21 | 0.057 µM | 0.0213 µM | 0.008 µM | IC50 (Acetylcholinesterase [4]): 0.0182 µM
O=S(=O)(c1ccccc1)n1ccc2c(N3CCN(CCCNCc4ccccc4)CC3)cccc21 | – | 0.608 µM | 0.016 µM | –
O=S(=O)(c1ccccc1)n1ccc2c(N3CCNCC3)cccc21 | – | – | – | inhibition [5]: 45.8%
CN(CCN1CCN(c2cccc3c2ccn3S(=O)(=O)c2ccccc2)CC1)Cc1ccccc1 | – | 1.95 µM | 0.015 µM | –
CC(=O)[C@H]1CC[C@H]2[C@@H]3CCC4=CC(=O)CC[C@]4(C)[C@H]3CC[C@]12C [PROGESTERONE] | – | – | – | logPeff [6]: -3.8
O=S(=O)(c1ccccc1)n1ccc2c(N3CCN(CCCCCCCNc4c5c(nc6ccccc46)CCCC5)CC3)cccc21 | 0.0151 µM | 0.01 µM | 0.036 µM | IC50 (Acetylcholinesterase [4]): 0.0062 µM
O=S(=O)(c1ccccc1)n1ccc2c(N3CCN(CCCNc4c5c(nc6ccccc46)CCCC5)CC3)cccc21 | 0.0121 µM | 0.0142 µM | 0.006 µM | IC50 (Acetylcholinesterase [4]): 0.0097 µM
CN(CCCN1CCN(c2cccc3c2ccn3S(=O)(=O)c2ccccc2)CC1)Cc1ccccc1 | – | – | 0.01 µM | inhibition [5]: 27.8%
CC(C)NCC(O)COc1cccc2ccccc12 (stereo unspecified) [PROPRANOLOL] | – | – | – | logPeff [6]: -3.7
CN(CCCCN1CCN(c2cccc3c2ccn3S(=O)(=O)c2ccccc2)CC1)Cc1ccccc1 | – | 6.22 µM | 0.004 µM | –
O=S(=O)(c1ccccc1)n1ccc2c(N3CCN(CCNC4CCN(Cc5ccccc5)C4)CC3)cccc21 (stereo unspecified) | – | 3.39 µM | 0.013 µM | –
CN(CCCCCN1CCN(c2cccc3c2ccn3S(=O)(=O)c2ccccc2)CC1)Cc1ccccc1 | – | 3.07 µM | 0.01 µM | –
O=S(=O)(c1ccccc1)n1ccc2c(N3CCN(CCCNC4CCN(Cc5ccccc5)CC4)CC3)cccc21 | – | 3.22 µM | 0.002 µM | –
O=S(=O)(c1ccccc1)n1ccc2c(N3CCN(CCCCCCNCc4ccccc4)CC3)cccc21 | – | 2.38 µM | 0.002 µM | –
O=S(=O)(c1ccccc1)n1ccc2c(N3CCN(CCNCc4ccccc4)CC3)cccc21 | – | 1.31 µM | 0.012 µM | –
O=S(=O)(c1ccccc1)n1ccc2c(N3CCN(CCCCNCc4ccccc4)CC3)cccc21 | – | 2.21 µM | 0.008 µM | –
O=S(=O)(c1ccccc1)n1ccc2c(N3CCN(CCNC4CCN(Cc5ccccc5)CC4)CC3)cccc21 | – | 10.6 µM | 0.039 µM | –
O=S(=O)(c1ccccc1)n1ccc2c(N3CCN(CCCCCCCCNc4c5c(nc6ccccc46)CCCC5)CC3)cccc21 | 0.0071 µM | 0.0124 µM | 0.036 µM | IC50 (Acetylcholinesterase [4]): 0.0013 µM
O=S(=O)(c1ccccc1)n1ccc2c(N3CCN(CCCCCCNc4c5c(nc6ccccc46)CCCC5)CC3)cccc21 | 0.0459 µM | 0.0082 µM | 0.002 µM | Activity (Rattus norvegicus [7]): Dose-dependent effect; inhibition [8]: Active; IC50 (Cholinesterase [9]): 0.0297 µM; Activity [10]: Non-Toxic; Activity (Rattus norvegicus [11]): Active; Activity (Rattus norvegicus [12]): Dose-dependent effect; inhibition [13]: Active; IC50 (Acetylcholinesterase [4]): 0.0129 µM
O=S(=O)(c1ccccc1)n1ccc2c(N3CCN(CCNc4c5c(nc6ccccc46)CCCC5)CC3)cccc21 | 0.0075 µM | 0.0168 µM | 0.01 µM | IC50 (Acetylcholinesterase [4]): 0.0436 µM
O=S(=O)(c1ccccc1)n1ccc2c(N3CCN(CCCCCNCc4ccccc4)CC3)cccc21 | 4.41 µM | 1.67 µM | 0.008 µM | –
O=S(=O)(c1ccccc1)n1ccc2c(N3CCN(CCCCNC4CCN(Cc5ccccc5)CC4)CC3)cccc21 | – | 2.16 µM | 0.016 µM | –
